# Reference: US20050112573A1, “Method of detecting toxic substance” (priority 2001, published 2005)
# Tested on: yeast genes (level of expressed mRNA)
# Test: DNA chip analysis of expressed mRNA of yeast genes after 2 h culture with a toxic chemical substance
# Assay type: cell-based, Saccharomyces cerevisiae S288C
# Conditions: for The level of expressed mRNA in the presence of chemical substance/ (ratio to absence of chemical substance): stress protein genes, DNA chip; for The level of expressed mRNA in the presence of chemical substance/ in its absence, gene YDL078C: yeast gene YDL078C
# Description: Yeast (Saccharomyces cerevtisiae S288C (α SUC2mal mel gap2 CUP1)) were cultured at 25° C. on YPD medium (yeast extract 1%, polypepton 2%, glucose 2%). One of toxic chemical substances was added to the cell at logarithmic growth phase, and the cell was further cultured for two hours. Cell was cultured without any chemical substance in the same condition, and was used as control. Concentrations of the chemical substances were defined to inhibit the growth of the yeast but not lead to death.
# After the completion of cultivation, the culture was centrifuged to collect the cells. To the cells, sodium acetate buffer (50 mM sodium acetate, 10 mM EDTA, 1% SDS) was added, and the mixture was shaken at 65° C. for five minutes, followed by returning to room temperature, and obtaining the supernatant, which procedure was repeated two times. To the supernatant, ½ amount of a solution of phenol/chloroform was added, and the mixture was centrifuged to give a supernatant, which was added with an equal amount of chloroform, and the mixture was centrifuged to give a supernatant. To the supernatant, an equal amount of isopropanol containing 0.3 M sodium acetate was added, and the mixture was allowed to stand at room temperature for 30 minutes, after which the mixture was centrifuged to give a sediment of the whole RNAs. Seventy % ethanol was added to the sediment, and the mixture was again centrifuged to give a sediment, which was then dried and dissolved in water. mRNA was isolated from the whole RNAs as followings. In view of the fact that a poly A chain is attached to the 3′ terminus of mRNA, a polynucleotide having a poly T structure which was immobilized on the surface of latex beads was used to trap the mRNA, and then the mRNA was washed and eluted with spine column (Oligotex-dT30<Super>mRNA Purification Kit, Takara). Reverse transcription of the mRNA was conducted with a reverse transcriptase (Super Script II Reverse Transcriptase; catalogue No. 18064-014, GibcoBRL) using fluorescence-labeled nucleotides to give cDNAs that were introduced with Cy3-dUTP or Cy5-dUTP during the reverse transcription.
# The labeled cDNAs were dissolved in TE buffer (10 mM Tris-HCl/1 mM EDTA, pH8.0), and the solution was dropped on the DNA chip containing the whole genes of yeast (DNA Chip Research Inc. Japan) so that the cDNAs were hybridized on the DNA chip at 65° C. for over 12 hours. The fluoresces intensity of the DNA chip was read with a scanner, and the ratio relative to the fluorescence intensity resulting from the absence of chemical substance was estimated as the following, which is shown in Tables 1 to 9: [formula]
# In the Tables, “Intensity” indicated in the rightmost column is a value of the level of expressed mRNA of each gene in control cells as divided by the average level of the expressions of the whole genes.
compound,measurement,setting,value
"COc1cc(CNC(=O)CCCCC=CC(C)C)ccc1O [(12), 8-methyl-N-vanillyl-6-nonenamide]",level of expressed mRNA in the presence of chemical substance/in its absence,gene YOR344C,1.3
same,level of expressed mRNA in the presence of chemical substance/in its absence,gene YOR347C,1.2
same,The level of expressed mRNA in the presence of chemical substance/absence: YPL005W,gene YPL005W,0.7
same,level of expressed mRNA in the presence of chemical substance/in its absence,gene YPL017C,1.0
same,"The level of expressed mRNA in the presence of chemical substance / the level in the absence of chemical substance, yeast gene YPL107W","gene YPL107W, DNA chip fluorescence ratio to control without chemical, 2 hours culture with chemical, growth-inhibiting non-lethal concentration",0.7
same,"The level of expressed mRNA in the presence of chemical substance / the level in the absence of chemical substance, yeast gene YPL138C","gene YPL138C, DNA chip fluorescence ratio to control without chemical, 2 hours culture with chemical, growth-inhibiting non-lethal concentration",0.9
same,The level of expressed mRNA in the presence of chemical substance/absence: YPL150W,gene YPL150W,1.0
same,The level of expressed mRNA in the presence of chemical substance/absence: YPL151C,gene YPL151C,0.8
same,The level of expressed mRNA in the presence of chemical substance/absence: YPL152W,gene YPL152W,0.9
same,The level of expressed mRNA in the presence of chemical substance/absence: YPL168W,gene YPL168W,0.7
same,The level of expressed mRNA in the presence of chemical substance/absence: YPL180W,gene YPL180W,0.8
same,The level of expressed mRNA in the presence of chemical substance/absence: YPL188W,gene YPL188W,0.6
same,The level of expressed mRNA in the presence of chemical substance/absence: YPL221W,gene YPL221W,0.8
same,The level of expressed mRNA in the presence of chemical substance/absence: YPL225W,gene YPL225W,0.7
same,The level of expressed mRNA in the presence of chemical substance/absence: YPL249C,gene YPL249C,0.9
same,The level of expressed mRNA in the presence of chemical substance/absence: YPL260W,gene YPL260W,0.8
same,level of expressed mRNA in the presence of chemical substance/in its absence,gene YPL265W,0.9
same,level of expressed mRNA in the presence of chemical substance/in its absence,gene YPR006C,1.1
same,level of expressed mRNA in the presence of chemical substance/in its absence,gene YPR026W,1.2
same,The level of expressed mRNA in the presence of chemical substance/absence: YPR049C,gene YPR049C,0.9
same,The level of expressed mRNA in the presence of chemical substance/absence: YPR061C,gene YPR061C,0.8
same,The level of expressed mRNA in the presence of chemical substance/absence: YPR093C,gene YPR093C,0.9
same,The level of expressed mRNA in the presence of chemical substance/absence: YPR146C,gene YPR146C,0.8
same,The level of expressed mRNA in the presence of chemical substance/absence: YPR148C,gene YPR148C,1.2
same,The level of expressed mRNA in the presence of chemical substance/absence: YPR150W,gene YPR150W,0.6
same,The level of expressed mRNA in the presence of chemical substance/absence: YPR158W,gene YPR158W,0.6
same,The level of expressed mRNA in the presence of chemical substance/absence: YPR169W,gene YPR169W,0.5
same,The level of expressed mRNA in the presence of chemical substance/absence: YPR172W,gene YPR172W,0.8
same,The level of expressed mRNA in the presence of chemical substance/absence: YPR174C,gene YPR174C,1.1
same,The level of expressed mRNA in the presence of chemical substance/The level of expressed mRNA in the absence of chemical substance,yeast gene YAR010C,1.0
same,The level of expressed mRNA in the presence of chemical substance/The level of expressed mRNA in the absence of chemical substance,yeast gene YBL005W-A,1.6
same,"The level of expressed mRNA in the presence of chemical substance/ (ratio to absence), gene YBL038W","yeast gene YBL038W, mitochondria-located protein genes, 2 h culture with chemical",0.7
same,The level of expressed mRNA in the presence of chemical substance/The level of expressed mRNA in the absence of chemical substance,yeast gene YBL041W,1.6
same,The level of expressed mRNA in the presence of chemical substance/The level of expressed mRNA in the absence of chemical substance,yeast gene YBL043W,0.9
same,The level of expressed mRNA in the presence of chemical substance/The level of expressed mRNA in the absence of chemical substance,yeast gene YBL078C,3.1
same,The level of expressed mRNA in the presence of chemical substance/ (ratio to absence of chemical substance),yeast gene YBL093C,1.1
same,"The level of expressed mRNA in the presence of chemical substance/ (in its absence), gene YBR036C","yeast gene YBR036C, ratio of DNA chip fluorescence intensity to that without chemical substance",1.0
same,The level of expressed mRNA in the presence of chemical substance/ (ratio to absence of chemical substance),yeast gene YBR044C,0.8
same,"The level of expressed mRNA in the presence of chemical substance/ (ratio to absence), gene YBR122C","yeast gene YBR122C, mitochondria-located protein genes, 2 h culture with chemical",0.7
same,The level of expressed mRNA in the presence of chemical substance/The level of expressed mRNA in the absence of chemical substance,yeast gene YBR214W,1.2
same,"The level of expressed mRNA in the presence of chemical substance/ (ratio to absence), gene YBR251W","yeast gene YBR251W, mitochondria-located protein genes, 2 h culture with chemical",1.1
same,"The level of expressed mRNA in the presence of chemical substance/ (in its absence), gene YBR298C","yeast gene YBR298C, ratio of DNA chip fluorescence intensity to that without chemical substance",1.1
same,The level of expressed mRNA in the presence of chemical substance/The level of expressed mRNA in the absence of chemical substance,yeast gene YCL020W,1.5
same,The level of expressed mRNA in the presence of chemical substance/The level of expressed mRNA in the absence of chemical substance,yeast gene YCL027W,0.8
same,The level of expressed mRNA in the presence of chemical substance/The level of expressed mRNA in the absence of chemical substance,yeast gene YCR004C,0.8
same,"The level of expressed mRNA in the presence of chemical substance/ (ratio to absence), gene YCR046C","yeast gene YCR046C, mitochondria-located protein genes, 2 h culture with chemical",1.1
same,The level of expressed mRNA in the presence of chemical substance/The level of expressed mRNA in the absence of chemical substance,yeast gene YCR071C,1.1
same,"The level of expressed mRNA in the presence of chemical substance/ (ratio to absence), gene YCR083W","yeast gene YCR083W, mitochondria-located protein genes, 2 h culture with chemical",1.1
same,The level of expressed mRNA in the presence of chemical substance/ (ratio to absence of chemical substance),yeast gene YCR083W,1.1
same,The level of expressed mRNA in the presence of chemical substance/The level of expressed mRNA in the absence of chemical substance,yeast gene YCR088W,1.3
same,The level of expressed mRNA in the presence of chemical substance/The level of expressed mRNA in the absence of chemical substance,yeast gene YDL008W,1.2
same,"The level of expressed mRNA in the presence of chemical substance/ in its absence, gene YDL067C","yeast gene YDL067C, energy system protein genes, 2 h culture with the chemical, ratio to control without chemical",1.0
same,"The level of expressed mRNA in the presence of chemical substance/ (ratio to absence), gene YDL067C","yeast gene YDL067C, mitochondria-located protein genes, 2 h culture with chemical",1.0
same,"The level of expressed mRNA in the presence of chemical substance/ in its absence, gene YDL078C","energy system protein genes, 2 h culture with the chemical, ratio to control without chemical",0.8
same,"The level of expressed mRNA in the presence of chemical substance/ in its absence, gene YDL078C",ratio of DNA chip fluorescence intensity to that without chemical substance,0.8
same,"The level of expressed mRNA in the presence of chemical substance/ (in its absence), gene YDL215C","yeast gene YDL215C, ratio of DNA chip fluorescence intensity to that without chemical substance",0.8
same,The level of expressed mRNA in the presence of chemical substance/The level of expressed mRNA in the absence of chemical substance,yeast gene YDL238C,0.9
same,The level of expressed mRNA in the presence of chemical substance/The level of expressed mRNA in the absence of chemical substance,yeast gene YDR055W,1.4
